# Data published in paper PMC10535864, “Novel Aminopyrimidine-2,4-diones, 2-Thiopyrimidine-4-ones, and 6-Arylpteridines as Dual-Target Inhibitors of BRD4/PLK1: Design, Synthesis, Cytotoxicity, and Computational Studies” (Pharmaceuticals, 2023).
# Like-named read-outs stand apart in the source and are kept apart here.
# Experiments:
# [1] = test system: MDA-MB-231 breast cancer cells; experiment: MTT cytotoxicity assay, MDA-MB-231; type: cell-based
# How it was run: (§1)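 Cells seeded at 1 X 10^5 cells/mL and grown 24 h at 37°C to a monolayer, then exposed to two-fold compound dilutions in RPMI with 2% serum, six doses. MTT added for 4 h at 37°C, formazan dissolved in DMSO, OD read at 560 nm minus 620 nm background. IC50 from dose-response.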
# [2] = test system: HT-29 colorectal adenocarcinoma cells; experiment: MTT cytotoxicity assay, HT-29; type: cell-based
# How it was run: as §1
# [3] = MTT cytotoxicity assay, U-937; type: cell-based; settings: Homo sapiens, U-937, U937, MTT;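 note: Six-dose MTT colorimetric assay on cell monolayers, formazan absorbance read at 560 nm with 620 nm background removed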
# U-937 renal cancer cells = experiment: MTT cytotoxicity assay, U-937; type: cell-based; settings: for IC50: Homo sapiens, U-937;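 for all read-outs here: Six-dose MTT colorimetric assay on cell monolayers, formazan absorbance read at 560 nm with 620 nm background removed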
# [4] = MTT cytotoxicity assay, normal Vero cells; type: cell-based; settings: African green monkey, normal Vero cells, MTT
# Procedure: (§2) Using a six-dose MTT colorimetric assay [44, 66], all new synthetic compounds were tested for cytotoxicity against three cancer cell lines: MDA-MB-231 breast cancer cells, HT-29 colorectal adenocarcinoma cells, and U-937 renal cancer cells. […] These cell lines were supplied by ATCC (American Type Culture Collection) via the Holding company for biological products and vaccines (VACSERA, Cairo, Egypt). The reference control used was Methotrexate.
# 1.1.In-vitro cytotoxicity screening
# (§3) Using a six-dose MTT colorimetric assay [44, 66], allnew synthetic compounds were tested for cytotoxicity against three cancer cell lines: MDA-MB-231 breast cancer cells,HT-29 colorectal adenocarcinoma cells, and U-937 renal
# (§4) The cell lines were supplied by ATCC (American Type Culture Collection). The reference control used was Methotrexate. The cytotoxic activities of the examined compounds were quantified by inoculating a 96-well tissue culture plate with 1 X 10^5 cells / mL (100 uL/well) and incubating it at 37°C for 24 hours to develop a complete monolayer sheet. After forming a confluent sheet of cells, the growth medium was decanted from 96-well microtiter plates, and the cell monolayer was washed twice with wash media. Two-fold dilutions of tested samples were made in RPMI medium with 2% serum (maintenance medium), and 0.1 mL of each dilution was tested in different wells, with three wells serving as controls and receiving only maintenance medium. Following that, the plate was incubated at 37°C and examined. Cells were investigated for any physical signs of toxicity, such as partial or complete monolayer loss, rounding, shrinkage, or cell granulation. MTT solution was prepared (5mg/ml in PBS) (BIO BASIC CANADA INC), and 20 uL MTT solution was added to each well. After 5 minutes on a shaking table at150 rpm to thoroughly mix the MTT into the media, it was incubated (37C, 5% CO2) for 4 hours to allow the MTT to be metabolized. Formazan (MTT metabolic product) was resuspended in 200 uL DMSO and shaken at 150 rpm for 5 minutes to thoroughly mix the formazan into the solvent. The optical density was measured at 560 nm, and the background was subtracted at 620 nm. Finally, the IC50 of the test compound in comparison to the reference was calculated using the GraphPad Prism software.
# normal Vero cells = experiment: MTT cytotoxicity assay, normal Vero cells; type: cell-based; settings: Vero; for Toxicity %: MTT
# Procedure: as §2
# 1.1.In-vitro cytotoxicity screening
# as §3, §4
# BRD4 (BD2) = target: T1, BRD4 (BD2) (Homo sapiens, UniProt O60885); experiment: BRD4 inhibitory activity assay (AlphaLISA Bromodomain Assay); type: binding; settings: for %inh: BRD4 Lab Report;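 for all read-outs here: in vitro inhibition of recombinant BRD4 BD2 bromodomain binding to a BET bromodomain ligand, read by AlphaLISA proximity signal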
# T1 construct: BRD4 (BD2) should be thawed on ice; purchased
# human recombinant PLK1 = human recombinant PLK1 (Homo sapiens, UniProt P53350); experiment: PLK1 inhibitory activity assay (ADP-Glo Kinase Assay); type: biochemical; settings: for %inh: PLK1 Lab Report
# Sequence of human recombinant PLK1 (P53350 whole entry): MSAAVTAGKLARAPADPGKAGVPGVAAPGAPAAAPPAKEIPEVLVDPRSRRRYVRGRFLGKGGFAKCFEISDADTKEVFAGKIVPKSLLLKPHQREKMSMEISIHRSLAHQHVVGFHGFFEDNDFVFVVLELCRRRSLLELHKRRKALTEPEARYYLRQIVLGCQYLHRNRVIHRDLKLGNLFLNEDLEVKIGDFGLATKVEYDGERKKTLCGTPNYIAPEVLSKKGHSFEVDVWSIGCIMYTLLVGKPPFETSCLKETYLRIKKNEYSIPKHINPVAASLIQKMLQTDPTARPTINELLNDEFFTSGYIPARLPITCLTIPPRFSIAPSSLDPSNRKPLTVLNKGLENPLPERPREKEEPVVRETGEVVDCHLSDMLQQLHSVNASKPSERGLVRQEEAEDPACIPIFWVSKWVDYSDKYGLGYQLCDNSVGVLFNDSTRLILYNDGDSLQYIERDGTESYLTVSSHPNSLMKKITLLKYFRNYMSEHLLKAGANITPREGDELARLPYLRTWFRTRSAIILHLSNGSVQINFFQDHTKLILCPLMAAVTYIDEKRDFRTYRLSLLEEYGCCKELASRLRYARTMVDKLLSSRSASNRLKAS
# Procedure: The BRD4 and PLK1 inhibitory assays were carried out in vitro in accordance with the manufacturer’s instructions; BRD4 was assessed using AlphaLISA Bromodomain Assay Protocol, and PLK1 kinase was tested using the ADP-Glo™ Kinase Assay Protocol, as detailed in the Supplementary file. […]
# 1.2.2. PLK1 inhibitory activity assay
# The kinase reaction was performed with active human recombinant PLK1 and combined with the substrate dephosphorylated casein (positive control) using 1 X reaction buffer (40 mM Tris-HCl pH 7.4, 20 mM MgCl2, 0.1 mg/mL BSA, 1 mM DTT) and 20 μM ATP. The reaction was incubated at30°C for 45 minutes. The amount of ATP transferred was calculated using […] reagent from Promega according to the manufacturer’s instruction.
# A plate-reading luminometer isused to measure the luminescence. […]
# [5] = SI = IC50 normal cells (Vero)/IC50 cancer cells
structure (smiles),measurement,setting,value
"CCn1c(N)c(/N=C(/CBr)c2ccc(OC)cc2)c(=O)[nH]c1=O [Compound 6a, (E)-6-Amino-5-((2-bromo-1-(4-methoxyphenyl)ethylidene)amino)-1-ethylpyrimidine-2,4(1H,3H)-dione]",IC50,"[1]; Homo sapiens, MDA-MB-231, MTT, mean of three independent experiments ± SD, read-out: IC50 Value MDA-MB-231",630 ± 10 nM
same,viability at 0.312 µM,"[1]; Homo sapiens, MDA-MB-231, MTT, 0.312 uM",100%
same,viability at 0.625 µM,"[1]; Homo sapiens, MDA-MB-231, MTT, 0.625 uM",98.9%
same,viability at 1.25 µM,"[1]; Homo sapiens, MDA-MB-231, MTT, 1.25 uM",27.1%
same,viability at 2.5 µM,"[1]; Homo sapiens, MDA-MB-231, MTT, 2.5 uM",5.98%
same,viability at 5 µM,"[1]; Homo sapiens, MDA-MB-231, MTT, 5 uM",3.37%
same,viability at 10 µM,"[1]; Homo sapiens, MDA-MB-231, MTT, 10 uM",4.03%
same,IC50,"[1]; Homo sapiens, supplement viability lab report, MDA-MB-231, read-out: IC50 ± SD",1000 nM
same,Toxicity %,"[1]; MDA-MB-231, MTT, 0.312 uM",0.04433%
same,Toxicity %,"[1]; MDA-MB-231, MTT, 0.625 uM",1.064%
same,Toxicity %,"[1]; MDA-MB-231, MTT, 1.25 uM",72.92%
same,Toxicity %,"[1]; MDA-MB-231, MTT, 2.5 uM",94.02%
same,Toxicity %,"[1]; MDA-MB-231, MTT, 5 uM",96.63%
same,Toxicity %,"[1]; MDA-MB-231, MTT, 10 uM",95.97%
same,Selectivity Indices (SI) MDA-MB-231,"[1]; SI = IC50 normal cells (Vero)/IC50 cancer cells, ≥5 highly, >2 moderately, <2 non-selective",3.27
same,Toxicity %,"[2]; HT29, MTT, 0.312 uM",0.3876%
same,Toxicity %,"[2]; HT29, MTT, 0.625 uM",0.04307%
same,Toxicity %,"[2]; HT29, MTT, 1.25 uM",26.57%
same,Toxicity %,"[2]; HT29, MTT, 2.5 uM",89.88%
same,Toxicity %,"[2]; HT29, MTT, 5 uM",95.95%
same,Toxicity %,"[2]; HT29, MTT, 10 uM",95.74%
same,viability at 0.312 µM,"[2]; Homo sapiens, HT-29, HT29, MTT, 0.312 uM",99.6%
same,viability at 0.625 µM,"[2]; Homo sapiens, HT-29, HT29, MTT, 0.625 uM",100%
same,viability at 1.25 µM,"[2]; Homo sapiens, HT-29, HT29, MTT, 1.25 uM",73.4%
same,viability at 2.5 µM,"[2]; Homo sapiens, HT-29, HT29, MTT, 2.5 uM",10.1%
same,viability at 5 µM,"[2]; Homo sapiens, HT-29, HT29, MTT, 5 uM",4.05%
same,viability at 10 µM,"[2]; Homo sapiens, HT-29, HT29, MTT, 10 uM",4.26%
same,IC50,"[2]; Homo sapiens, HT-29, MTT, mean of three independent experiments ± SD, read-out: IC50 Value HT-29",750 ± 10 nM
same,IC50,"[2]; Homo sapiens, HT-29, supplement viability lab report, HT29, read-out: IC50 ± SD",1690 nM
same,Selectivity Indices (SI) HT-29,[2]; [5],2.75
same,viability at 0.312 µM,[3]; 0.312 uM,99.1%
same,viability at 0.625 µM,[3]; 0.625 uM,96.1%
same,viability at 1.25 µM,[3]; 1.25 uM,40.3%
same,viability at 2.5 µM,[3]; 2.5 uM,14.5%
same,viability at 5 µM,[3]; 5 uM,13.2%
same,viability at 10 µM,[3]; 10 uM,9.91%
same,IC50,"U-937 renal cancer cells; MTT, mean of three independent experiments ± SD, read-out: IC50 Value U-937",970 ± 10 nM
same,IC50,"U-937 renal cancer cells; supplement viability lab report, U937, read-out: IC50 ± SD",1120 nM
same,Selectivity Indices (SI) U-937,U-937 renal cancer cells; [5],2.12
same,Toxicity %,"U-937 renal cancer cells; U937, MTT, 0.312 uM",0.8715%
same,Toxicity %,"U-937 renal cancer cells; U937, MTT, 0.625 uM",3.867%
same,Toxicity %,"U-937 renal cancer cells; U937, MTT, 1.25 uM",59.69%
same,Toxicity %,"U-937 renal cancer cells; U937, MTT, 2.5 uM",85.46%
same,Toxicity %,"U-937 renal cancer cells; U937, MTT, 5 uM",86.76%
same,Toxicity %,"U-937 renal cancer cells; U937, MTT, 10 uM",90.09%
same,IC50,"[4]; mean of three independent experiments ± SD, read-out: In Vitro Cytotoxicity against Normal Cells IC50 Value, Vero Cells",2060 ± 30 nM
same,viability at 0.312 µM,"[4]; Vero, 0.312 uM",99.8%
same,viability at 0.625 µM,"[4]; Vero, 0.625 uM",99.2%
same,viability at 1.25 µM,"[4]; Vero, 1.25 uM",83.6%
same,viability at 2.5 µM,"[4]; Vero, 2.5 uM",26.8%
same,viability at 5 µM,"[4]; Vero, 5 uM",11.6%
same,viability at 10 µM,"[4]; Vero, 10 uM",4.59%
same,IC50,"normal Vero cells; Chlorocebus sabaeus, supplement viability lab report",1950 nM
same,Toxicity %,normal Vero cells; 0.312 uM,0.1996%
same,Toxicity %,normal Vero cells; 0.625 uM,0.7585%
same,Toxicity %,normal Vero cells; 1.25 uM,16.37%
same,Toxicity %,normal Vero cells; 2.5 uM,73.21%
same,Toxicity %,normal Vero cells; 5 uM,88.38%
same,Toxicity %,normal Vero cells; 10 uM,95.41%
same,%inh,BRD4 (BD2); conc 0.01 (unit not given),34%
same,%inh,BRD4 (BD2); conc 0.1 (unit not given),49%
same,%inh,BRD4 (BD2); conc 1 (unit not given),73%
same,%inh,BRD4 (BD2); conc 10 (unit not given),88%
same,%inh,BRD4 (BD2); conc 100 (unit not given),95%
same,IC50,"BRD4 (BD2); mean of three independent experiments, read-out: BRD4 IC50 ± SD",141 ± 6 nM
same,%inh,human recombinant PLK1; conc 0.01 (unit not given),25%
same,%inh,human recombinant PLK1; conc 0.1 (unit not given),42%
same,%inh,human recombinant PLK1; conc 1 (unit not given),65%
same,%inh,human recombinant PLK1; conc 10 (unit not given),87%
same,%inh,human recombinant PLK1; conc 100 (unit not given),94%
same,IC50,"human recombinant PLK1; mean of three independent experiments, read-out: PLK1 IC50 ± SD",218 ± 10 nM
